Data set [1] can be described thus: Pharmacokinetics (oral bioavailability) in C57BL/6 mice. Particulars: mouse, in vivo; for bioavailability: IV 1 mg/kg, PO 30 mg/kg; for Vd: following IV administration, 1 mg/kg, read-out: volume of distribution. Here is the method: Selected compounds were tested for pharmacokinetics in C57BL/6 mice. Compounds 1, 4, 31, 32, 40, 55, 57 and 60 were dosed IV at 1 mg/kg as a formulation of 0.2 mg/mL in 5% DMSO+30% PEG400+65% water and were dosed PO at 30 mg/kg as a formulation of 3 mg/mL in 0.25% MC+5% Tween 80+0.02% SDS. Compound 2 was dosed IV at 1 mg/kg as a formulation of 0.2 mg/mL in 5% ethanol +95% saline and was dosed PO at 30 mg/kg as a formulation of 3 mg/mL in 0.25% MC+5% Tween 80+0.02% SDS.

The test system of data set [2] is Chemotherapy-induced Intestinal Injury Model. Nature of the data set: Diarrhea in mouse chemotherapy-induced (5FU) intestinal injury model. It is filed as in vivo, BALB/c mice. Particulars: 5FU 400 mg/kg IP; for Diarrhea Score Day 5 / Diarrhea Score Day 6: score 0-3. Here is the method:
Compounds were formulated in vehicle (0.25% methyl cellulose, 5% Tween 80, 0.02% sodium dodecyl sulfate (SDS) in Hanks' Buffered Salt Solution with Ca' and Mg'). On day 1, either saline or a 400 mg/kg dose of 5-fluorouracil (5FU) in saline was administered by intraperitoneal injection to BALB/c mice. Starting on day 2, vehicle or compound was administered twice a day by oral gavage. From days 5 to 6 post-5FU, the animals were scored for diarrhea severity once a day. The diarrhea was scored 0-3 as follows: 0—normal consistency (black and solid), 1—soft (black and a bit lighter/yellow), 2—loosely shaped stool (yellowish and somewhat watery), 3—extreme diarrhea (very watery).

The target of data set [3] is Recombinant AMPK α1/β1/γ1 complex (Homo sapiens (Human), UniProt Q13131+Q9Y478). Briefly: In vitro pAMPK1 kinase activation assay (ADP-Glo, SAMS peptide). It is filed as biochemical. Particulars: AMPK α1/β1/γ1 pre-activated with CAMKK2; 12-point curve; 15 min compound incubation. Here is the method: Compound effect on AMPK enzyme activation was determined in a cell-free format with a 12-point concentration curve. The ADP-Glo detection system was used to determine phosphorylation of a SAMS peptide substrate. Recombinant AMPK α1/β1/γ1 complex was pre-activated by phosphorylation with CAMKK2 followed by incubated with compound for 15 minutes prior to the SAMS phosphorylation reaction. Activity curves and EC50 values were fitted by interpolation to an ATP:ADP standard curve as indicated by the ADP-Glo manufacturer using Prism software.
Sequence of Recombinant AMPK α1/β1/γ1 complex (Q13131 whole entry): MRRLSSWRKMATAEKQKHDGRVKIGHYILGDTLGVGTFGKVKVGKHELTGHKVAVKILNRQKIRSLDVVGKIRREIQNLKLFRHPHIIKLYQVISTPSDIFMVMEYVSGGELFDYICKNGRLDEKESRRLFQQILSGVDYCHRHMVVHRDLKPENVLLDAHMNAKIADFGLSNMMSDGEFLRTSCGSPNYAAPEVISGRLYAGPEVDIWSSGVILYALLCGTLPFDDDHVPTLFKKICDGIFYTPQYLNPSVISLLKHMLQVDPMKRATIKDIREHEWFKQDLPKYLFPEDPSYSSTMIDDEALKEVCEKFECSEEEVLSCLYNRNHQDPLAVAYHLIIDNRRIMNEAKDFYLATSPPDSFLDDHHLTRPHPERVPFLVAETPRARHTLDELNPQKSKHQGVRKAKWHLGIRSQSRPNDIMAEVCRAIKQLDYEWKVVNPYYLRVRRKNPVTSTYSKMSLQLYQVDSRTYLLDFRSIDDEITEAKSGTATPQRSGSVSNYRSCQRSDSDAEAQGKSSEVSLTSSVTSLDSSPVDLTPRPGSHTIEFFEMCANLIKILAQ
Sequence of Recombinant AMPK α1/β1/γ1 complex (Q9Y478 whole entry): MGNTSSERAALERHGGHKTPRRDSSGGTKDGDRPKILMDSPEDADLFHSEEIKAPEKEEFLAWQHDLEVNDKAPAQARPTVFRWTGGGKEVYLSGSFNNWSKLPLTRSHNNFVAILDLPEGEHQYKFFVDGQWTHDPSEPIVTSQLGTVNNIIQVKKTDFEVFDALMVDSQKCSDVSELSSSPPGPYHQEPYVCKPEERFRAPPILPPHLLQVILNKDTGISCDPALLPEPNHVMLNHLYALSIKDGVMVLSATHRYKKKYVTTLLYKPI
Sequence of Recombinant AMPK α1/β1/γ1 complex (P54619 whole entry partner): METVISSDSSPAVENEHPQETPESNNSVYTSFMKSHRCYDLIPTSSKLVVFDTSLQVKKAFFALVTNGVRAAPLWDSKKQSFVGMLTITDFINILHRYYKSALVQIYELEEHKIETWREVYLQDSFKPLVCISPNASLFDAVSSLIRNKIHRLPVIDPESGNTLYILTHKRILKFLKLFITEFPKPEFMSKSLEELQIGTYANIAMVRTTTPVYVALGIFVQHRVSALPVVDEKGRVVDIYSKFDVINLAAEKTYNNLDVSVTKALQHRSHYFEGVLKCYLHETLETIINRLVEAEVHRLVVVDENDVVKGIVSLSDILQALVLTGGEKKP

The nature of data set [4]: in vitro. The conditions noted are these: human. Here is the method: Caco-2 cells purchased from ATCC were seeded onto […] (PET) in 96-well BD Insert plates at 1×10^5 cells/cm^2, and refreshed medium every 4-5 days until to the 21st to 28th day for confluent cell monolayer formation. The transport buffer in the study was HBSS with 10 mM HEPES at pH 7.40±0.05. Test compounds were tested at 2 μM bi-directionally in duplicate. Digoxin was tested at 10 μM bi-directionally in duplicate, while nadolol and metoprolol were tested at 2 μM in A to B direction in duplicate. Final DMSO concentration was adjusted to less than 1%.
The plate was incubated for 2 hours in CO2 incubator at 37±1° C., with 5% CO2 at saturated humidity without shaking. All samples were mixed with acetonitrile containing internal standard and were centrifuged at 4000 rpm for 10 min. Subsequently, 100 μL supernatant solution was diluted with 100 μL distilled water for LC/MS/MS analysis. Concentrations of test and control compounds in starting solution, donor solution, and receiver solution were quantified by LC/MS/MS, using peak area ratio of analyte/internal standard.

The mark [5] stands for this setting: Caco-2, pH 7.4, Mean Recovery A to B.

Where a name gives a salt, the structure may show the parent alone.

For orientation: bioavailability means dose-corrected exposure relative to a reference, in per cent. A high value points to good availability. As usually defined, the EC50 is the midpoint of the concentration-response curve. What is called Papp A→B is how fast a substance crosses the layer from the apical side. Broadly, the Papp B→A is how fast a substance crosses the layer from the basolateral side. What is called efflux ratio is a quotient of directional permeabilities that is used to spot active efflux.

As to `O=C(NCC[N+]12CCN(CC1)CC2)c1ccc(-c2ccc(-c3cc4nc(O[C@@H]5CO[C@H]6[C@@H]5OC[C@H]6O)[nH]c4cc3Cl)cc2)cc1` [Compound 32, 1-(2-(4′-(6-chloro-2-(((3R,3aR,6R,6aR)-6-hydroxyhexahydrofuro[3,2-b]furan-3-yl)oxy)-1H-benzo [d]imidazol-5-yl)-[1,1′-biphenyl]-4-carboxamido)ethyl)-1,4-diazabicyclo[2.2.2]octan-1-ium formate], in data set [1], the bioavailability is below 1% and the Vd is below 1 L/kg. Besides, in data set [2] (20 mpk BID oral), the “Diarrhea Score Day 5, % Change vs. Vehicle” value was −43%; the “Diarrhea Score Day 6, % Change vs. Vehicle” value is recorded as −52%; the “Diarrhea Score Day 5” value was 0.63; the “Diarrhea Score Day 6” value was determined as 0.88.
For `OCC(CO)NCc1ccc(-c2ccc(-c3cc4nc(O[C@@H]5CO[C@H]6[C@@H]5OC[C@H]6O)[nH]c4cc3Cl)cc2)cc1` [Compound 40, 2-(((4′-(6-chloro-2-(((3R,3aR,6R,6aR)-6-hydroxyhexahydrofuro[3,2-b]furan-3-yl)oxy)-1H-benzo[d]imidazol-5-yl)-[1,1′-biphenyl]-4-yl)methyl)amino)propane-1,3-diol], in data set [1], the bioavailability is below 10% and the Vd was below 5 L/kg. For the same compound, in data set [2] (30 mpk BID oral), the “Diarrhea Score Day 5, % Change vs. Vehicle” value is −66%; the “Diarrhea Score Day 6, % Change vs. Vehicle” value is −59%; the “Diarrhea Score Day 5” value is 0.38; the “Diarrhea Score Day 6” value was found to be 0.75.
As for `OCC1CCN(Cc2ccc(-c3ccc(-c4cc5nc(O[C@@H]6CO[C@H]7[C@@H]6OC[C@H]7O)[nH]c5cc4Cl)cc3)cc2)CC1` [Compound 55, (3R,3aR,6R,6aR)-6-((6-chloro-5-(4′((4-(hydroxymethyl)piperidin-1-yl)methyl)-[1,1′-biphenyl]-4-yl)-1H-benzo[d]imidazol-2-yl)oxy)hexahydrofuro[3,2-b]furan-3-ol], in data set [3], the EC50 was found to be 2.22 nM. Moreover, in data set [1], the bioavailability was below 15% and the Vd was below 5 L/kg.
As for `OCCN1CCN(Cc2ccc(-c3ccc(-c4cc5nc(O[C@@H]6CO[C@H]7[C@@H]6OC[C@H]7O)[nH]c5cc4Cl)cc3)cc2)CC1` [Compound 56], in data set [3], the EC50 was 0.93 nM. Also, in data set [2] (30 mpk BID oral), the “Diarrhea Score Day 5, % Change vs. Vehicle” value is on record as −71%; the “Diarrhea Score Day 6, % Change vs. Vehicle” value was −77%; the “Diarrhea Score Day 5” value is on record as 0.38; the “Diarrhea Score Day 6” value came to 0.25.
With `CN1CCN(Cc2ccc(-c3ccc(-c4cc5nc(O[C@@H]6CO[C@H]7[C@@H]6OC[C@H]7O)[nH]c5cc4Cl)cc3)cc2)CC1` [Compound 57, (3R,3aR,6R,6aR)-6-((6-chloro-5-(4′-((4-methylpiperazin-1-yl)methyl)-[1,1′-biphenyl]-4-yl)-1H-benzo[d]imidazol-2-yl)oxy)hexahydrofuro[3,2-b]furan-3-ol], the EC50 in data set [3] worked out at 0.89 nM. In data set [1], the bioavailability is below 10% and the Vd was below 5 L/kg.
Take `OCCOCCNCc1ccc(-c2ccc(-c3cc4nc(O[C@@H]5CO[C@H]6[C@@H]5OC[C@H]6O)[nH]c4cc3Cl)cc2)cc1` [Compound 58, (3R,3aR,6R,6aR)-6-((6-chloro-5-(4′-(((2-(2-hydroxyethoxy)ethyl)amino)methyl)-[1,1′-biphenyl]-4-yl)-1H-benzo[d]imidazol-2-yl)oxy)hexahydrofuro[3,2-b]furan-3-ol]: in data set [3], the EC50 is 0.93 nM. Also, in data set [2] (30 mpk BID oral), the “Diarrhea Score Day 5, % Change vs. Vehicle” value was −81%; the “Diarrhea Score Day 6, % Change vs. Vehicle” value is −66%; the “Diarrhea Score Day 5” value worked out at 0.25; the “Diarrhea Score Day 6” value amounted to 0.38.
Consider `OCC1(CO)CCN(Cc2ccc(-c3ccc(-c4cc5nc(O[C@@H]6CO[C@H]7[C@@H]6OC[C@H]7O)[nH]c5cc4Cl)cc3)cc2)CC1` [Compound 60, (1-((4′-(6-chloro-2-(((3R,3aR,6R,6aR)-6-hydroxyhexahydrofuro[3,2-b]furan-3-yl)oxy)-1H-benzo[d]imidazol-5-yl)-[1,1′-biphenyl]-4-yl)methyl)piperidine-4,4-diyl)dimethanol], for which, in data set [3], the EC50 worked out at 0.85 nM. In addition, in data set [1], the bioavailability was below 15% and the Vd is below 5 L/kg. Further, in data set [2] (30 mpk BID oral), the “Diarrhea Score Day 5, % Change vs. Vehicle” value is −71%; the “Diarrhea Score Day 6, % Change vs. Vehicle” value is recorded as −66%; the “Diarrhea Score Day 5” value worked out at 0.38; the “Diarrhea Score Day 6” value amounted to 0.38.
For `O=S(=O)(NC[C@H](O)[C@@H](O)[C@H](O)[C@H](O)CO)c1ccc(-c2ccc(-c3cc4nc(O[C@@H]5CO[C@H]6[C@@H]5OC[C@H]6O)[nH]c4cc3Cl)cc2)cc1` [Compound 71], the EC50 in data set [3] was found to be 0.63 nM.
Consider `CN(CCOCCO)S(=O)(=O)c1ccc(-c2ccc(-c3cc4nc(O[C@@H]5CO[C@H]6[C@@H]5OC[C@H]6O)[nH]c4cc3Cl)cc2)cc1` [Compound 72], for which the concentration for a half-maximal effect (EC50) in data set [3] amounted to 1.38 nM.
With `CC(NC[C@H](O)[C@@H](O)[C@H](O)[C@H](O)CO)c1ccc(-c2ccc(-c3nc4nc(O[C@@H]5CO[C@H]6[C@@H]5OC[C@H]6O)[nH]c4cc3Cl)cc2)cc1` (some centres unmarked) [Compound 73], in data set [3], the EC50 was found to be 1.33 nM.
In the case of `OCCOCCNCc1ccc(-c2ccc(-c3cc4nc(O[C@@H]5CO[C@H]6[C@@H]5OC[C@H]6O)[nH]c4cc3Cl)cc2)c(O)c1` [Compound 74], the EC50 in data set [3] is 0.15 nM.
`O=C(NCCOCCO)c1ccc(-c2ccc(-c3cc4nc(O[C@@H]5CO[C@H]6[C@@H]5OC[C@H]6O)[nH]c4cc3Cl)cc2)c(O)c1` [Compound 75, 4′-(6-chloro-2-(((3R,3aR,6R,6aR)-6-hydroxyhexahydrofuro[3,2-b]furan-3-yl)oxy)-1H-benzo[d]imidazol-5-yl)-2-hydroxy-N-(2-(2-hydroxyethoxy)ethyl)-[1,1′-biphenyl]-4-carboxamide]: the EC50 in data set [3] was found to be 0.37 nM.
In data set [4] (Caco-2, pH 7.4), `C[C@H]1O[C@@H](O[C@H]2[C@@H](O)C[C@H](O[C@H]3[C@@H](O)C[C@H](O[C@H]4CC[C@@]5(C)[C@H](CC[C@@H]6[C@@H]5C[C@@H](O)[C@]5(C)[C@@H](C7=CC(=O)OC7)CC[C@]65O)C4)O[C@@H]3C)O[C@@H]2C)C[C@H](O)[C@@H]1O` [Digoxin, reference compound] yielded a Papp A→B at 2 h, 2 μM below 0.03 ×10⁻⁶ cm/s and a Papp B→A at 2 h, 2 μM of 12.7 ×10⁻⁶ cm/s. The efflux ratio at 2 h, 2 μM in data set [4] (Caco-2, pH 7.4, Efflux Ratio) is above 438. For the same compound, in data set [4] (setting [5]), the recovery at 2 h, 2 μM was below 90.8%. This compound displayed a recovery at 2 h, 2 μM in data set [4] (Caco-2, pH 7.4, Mean Recovery B to A) of 92.2%.
Turning to `COCCc1ccc(OCC(O)CNC(C)C)cc1` (centres unmarked) [Metoprolol, metoprolol, reference compound], the apparent permeability from apical to basolateral (Papp A→B) at 2 h, 2 μM in data set [4] (Caco-2, pH 7.4) worked out at 16.4 ×10⁻⁶ cm/s. This compound also showed a recovery at 2 h, 2 μM in data set [4] (setting [5]) of 90%.
